# Read-outs that look alike come from different tables or passages of the source.
# Experiments:
# [1] = target: T1, MER Proto-Oncogene tyrosine kinase (MERTK) (Homo sapiens, UniProt Q12866); assay: KINOMEscan competition binding assay (Eurofins DiscoverX), MERTK
# T1 construct: purchased Eurofins DiscoverX (KINOMEscan service)
# T1 sequence (Q12866 21-999): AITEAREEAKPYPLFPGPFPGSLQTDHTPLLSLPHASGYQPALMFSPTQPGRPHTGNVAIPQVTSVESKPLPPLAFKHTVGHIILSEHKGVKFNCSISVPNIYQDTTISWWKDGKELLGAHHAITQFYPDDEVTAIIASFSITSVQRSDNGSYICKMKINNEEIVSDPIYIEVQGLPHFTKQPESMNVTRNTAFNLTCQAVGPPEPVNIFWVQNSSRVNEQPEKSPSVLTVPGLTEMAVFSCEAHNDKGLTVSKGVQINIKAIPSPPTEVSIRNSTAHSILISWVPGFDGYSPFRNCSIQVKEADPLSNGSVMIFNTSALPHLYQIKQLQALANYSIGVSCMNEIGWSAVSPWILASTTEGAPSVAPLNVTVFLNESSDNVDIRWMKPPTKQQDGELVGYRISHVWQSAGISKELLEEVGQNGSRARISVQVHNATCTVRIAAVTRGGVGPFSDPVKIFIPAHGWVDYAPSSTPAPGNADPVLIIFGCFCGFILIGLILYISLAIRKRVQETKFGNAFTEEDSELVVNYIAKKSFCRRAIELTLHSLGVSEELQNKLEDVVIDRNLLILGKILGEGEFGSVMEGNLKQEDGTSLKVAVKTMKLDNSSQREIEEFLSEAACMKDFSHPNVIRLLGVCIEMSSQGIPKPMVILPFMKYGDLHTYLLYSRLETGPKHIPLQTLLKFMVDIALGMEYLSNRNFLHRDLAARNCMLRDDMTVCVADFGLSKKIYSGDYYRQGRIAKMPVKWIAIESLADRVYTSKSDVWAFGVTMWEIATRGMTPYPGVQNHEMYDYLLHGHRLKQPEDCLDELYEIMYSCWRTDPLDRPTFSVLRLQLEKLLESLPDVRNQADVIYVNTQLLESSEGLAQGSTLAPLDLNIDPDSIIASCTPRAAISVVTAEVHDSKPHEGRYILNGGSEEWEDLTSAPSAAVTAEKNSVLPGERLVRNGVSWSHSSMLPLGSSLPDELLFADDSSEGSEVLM
# Description: The affinity of several compounds hereof having a substituent on the imidazo[1,2-b]pyridazine moiety at position-6, wherein the substituent comprised one or more ring moieties was evaluated with respect to two TAM kinases: AXL and MERTK. Perhaps more specifically, the equilibrium dissociation constant between each of compounds HSND141, compound HSND149, HSND150, HSND151, and HSND80 and AXL and MERTK was evaluated at Eurofins DiscoverX using KINOMEscan™, which is a competition binding assay that quantitively measured the ability of each tested compound to displace an immobilized, active-site directed ligand. The assay uses DNA-tagged kinase, an immobilized ligand, and the test compound. Quantitative polymerase chain reaction (PCR) of the DNT tag was then used to measure the ability of the tested compound to displace the immobilized ligand.
# [2] = system: 4T1 (breast) syngeneic tumor; assay: 4T1 in vivo tumor reduction; design: species or system Female Balb-C mice; details: 15 mg/kg orally QD, 5 days on 2 days off
# Description: 0.5×10^6 4T1 cells were injected subcutaneously (SQ) into the right flank of Female Balb-C mice. Each group consisted of 5 tumor-bearing mice. 7 days after tumor implantation, mice were dosed orally QD with vehicle control (5% DMSO, 40% PEG300, 5% tween 80, 50% water) or HSND80 (15 mg/Kg). Mice were dosed 5 days on and 2 days off (drug holiday). Tumors were measured every other day (L, W, H) to give tumor volume in mm^3.
# p70S6K = p70S6K (Homo sapiens, UniProt P23443); assay: p70S6K inhibition, in vitro studies at Reaction Biology Corporation; format: biochemical; details: 25 nM compound, [ATP]=10 uM
# Description: The nature of the substituent on the imidazo[1,2-b]pyridazine moiety at position-6 was evaluated in in vitro studies performed at Reaction Biology Corporation (Malvern, PA). The results indicated the specific substituent dramatically affected the inhibition of p70S6K.
# Chain of p70S6K (P23443 whole entry): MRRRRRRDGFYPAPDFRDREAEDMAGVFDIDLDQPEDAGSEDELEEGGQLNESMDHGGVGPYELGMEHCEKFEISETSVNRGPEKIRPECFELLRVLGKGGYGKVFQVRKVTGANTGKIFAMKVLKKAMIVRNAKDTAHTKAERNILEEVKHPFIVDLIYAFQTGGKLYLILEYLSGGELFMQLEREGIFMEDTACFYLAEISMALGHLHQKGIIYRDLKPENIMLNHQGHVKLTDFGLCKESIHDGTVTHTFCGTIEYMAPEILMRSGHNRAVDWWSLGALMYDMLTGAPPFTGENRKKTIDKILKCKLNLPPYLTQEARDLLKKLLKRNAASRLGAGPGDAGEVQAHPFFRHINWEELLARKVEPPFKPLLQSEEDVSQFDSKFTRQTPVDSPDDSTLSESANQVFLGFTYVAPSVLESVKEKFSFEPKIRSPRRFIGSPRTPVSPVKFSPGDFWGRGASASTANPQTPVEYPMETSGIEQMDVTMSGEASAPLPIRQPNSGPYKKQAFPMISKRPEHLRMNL
smiles,measurement,setting,value
"C[C@@H]1CN(c2ccc3ncc(C#Cc4cncc(C(=O)Nc5ccc(CN6CCN(C)CC6)c(C(F)(F)F)c5)c4)n3n2)C[C@H](C)O1 [HSND80, 5-((6-((2S,6R)-2,6-Dimethylmorpholino)imidazo[1,2-b]pyridazin-3-yl)ethynyl)-N-(4-((4-methylpiperazin-1-yl)methyl)-3-(trifluoromethyl)phenyl)nicotinamide]",Kd,"[1]; FIG. 7A, replicate 1, read-out: Kd MERTK, replicate 1",1.6 nM
same,Kd,"[1]; FIG. 7B, replicate 2, read-out: Kd MERTK, replicate 2",2.1 nM
same,Kd,"[1]; Table 1, DiscoverX Eurofins, read-out: Kd MERTK",< 0.17 nM
same,reduction of growth of 4T1 tumor,[2],~60%
same,inhibition of p70S6K,p70S6K,97%

# From patent US20250243203A1, “NICOTINAMIDE- AND BENZAMIDE-BASED COMPOUNDS, CONJUGATES, AND COMPOSITIONS AS INHIBITORS OF TRANSLATIONAL- AND TRANSCRIPTIONAL-RELATED KINASES” (PURDUE RESEARCH FOUNDATION, priority 2022, published 2025)
